# Structures can show the parent of a compound that is named as a salt.
# Key:
# Assay type in all cases: physicochemical
# [1] = Solid state stability (XRPD for physical stability, HPLC purity for chemical stability); details: for Purity/initial purity: HPLC; for Form change: XRPD
# Text: All the samples were characterized by XRPD for physical stability and HPLC purity for chemical stability evaluation (Table 16).
# [2] = Kinetic solubility in water and bio-relevant media (SGF, FaSSIF, FeSSIF) at 37° C.; set-up: key to FC: form change: Yes: form changed; No: form not changed; details: for pH: filtered supernatant
# Experimental: Agilent 1260 HPLC was utilized and detailed chromatographic conditions are provided in Tables 3 and 4 for purity and solubility test, respectively.
# About 20 mg of free base (form A) HCl salt (form B), and HBr salt (form D) were added to a 5-mL glass vials followed by the addition of 4 mL of the corresponding medium/solvent into each glass vial to form a suspension. The vials were capped and rolled at 37° C. (25 rpm). Samples were removed (1 mL) at 1 h, 4 h, and 24 h and centrifuged (14000 rpm, 2 min, room temperature). The supernatant was filtered through 0.22 μm syringe filter (first few drops of filtrate were discarded) for HPLC solubility and pH tests (Table 15). The residual solids were analyzed by XRPD.
# [3] = Hygroscopicity by dynamic vapor sorption (DVS) at 25° C.; details: in the range of 0% RH to 30% RH, platform between 30% RH and 95% RH
# Experimental: DVS was measured via a SMS (Surface Measurement Systems) DVS Intrinsic. The relative humidity at 25° C. was calibrated against deliquescence point of LiCl, Mg(NO3)2 and KCl.
# [4] = Form conversion by variable-temperature XRPD (VT-XRPD)
# Experimental: […] 22.
# Based on data above, it would convert to dehydrate state (HCl salt Form C) at low humidity and back to hydrate at high humidity.
# HBr salt Form E was observed after N2 purging HBr salt Form D for 20 min at 30° C. via variable-temperature XRPD (VT-XRPD) shown in FIG. 23.
# Based on data above, it would convert to dehydrate state (HBr salt Form E) at low humidity and back to hydrate at high humidity.
smiles,measurement,setting,value
"COc1cc(C(=O)O)cc2sc(N3CCN(Cc4c(-c5c(Cl)cccc5Cl)noc4C4CC4)C[C@H]3C)nc12 [HCl salt Form B, (R)-2-(4-((5-cyclopropyl-3-(2,6-dichlorophenyl)isoxazol-4-yl)methyl)-2-methylpiperazin-1-yl)-4-methoxybenzo[d]thiazole-6-carboxylic acid]",Purity/initial purity,[1]; 25° C./60% RH/1 week,100.0%
same,Form change,[1]; 25° C./60% RH/1 week,No
same,Purity/initial purity,[1]; 40° C./75% RH/1 week,100.0%
same,Form change,[1]; 40° C./75% RH/1 week,No
same,"solid state stability (overall, in words)","[1]; 80° C./1 day, 25° C./60% RH/1 week, 40° C./75% RH/1 week",good solid state stability
same,Purity/initial purity,[1]; 80° C./1 day,100.0%
same,Form change,[1]; 80° C./1 day,No
same,solubility in FaSSIF and FeSSIF (in words),[2]; FaSSIF and FeSSIF,significant solubility improvement
same,FC: form change,"[2]; FaSSIF, 1 hr",No
same,S: solubility,"[2]; FaSSIF, 1 hr",290 µg/mL
same,pH,"[2]; FaSSIF, 1 hr",6.5
same,FC: form change,"[2]; FaSSIF, 4 hrs",No
same,S: solubility,"[2]; FaSSIF, 4 hrs",420 µg/mL
same,pH,"[2]; FaSSIF, 4 hrs",6.5
same,FC: form change,"[2]; FaSSIF, 24 hrs",No
same,S: solubility,"[2]; FaSSIF, 24 hrs",570 µg/mL
same,pH,"[2]; FaSSIF, 24 hrs",6.4
same,FC: form change,"[2]; FeSSIF, 1 hr",No
same,S: solubility,"[2]; FeSSIF, 1 hr",480 µg/mL
same,pH,"[2]; FeSSIF, 1 hr",5.1
same,FC: form change,"[2]; FeSSIF, 4 hrs",No
same,S: solubility,"[2]; FeSSIF, 4 hrs",480 µg/mL
same,pH,"[2]; FeSSIF, 4 hrs",5.0
same,FC: form change,"[2]; FeSSIF, 24 hrs",No
same,S: solubility,"[2]; FeSSIF, 24 hrs",500 µg/mL
same,pH,"[2]; FeSSIF, 24 hrs",5.0
same,FC: form change,"[2]; H2O, 1 hr",No
same,S: solubility,"[2]; H2O, 1 hr",4.9 µg/mL
same,pH,"[2]; H2O, 1 hr",6.1
same,FC: form change,"[2]; H2O, 4 hrs",No
same,S: solubility,"[2]; H2O, 4 hrs",5.6 µg/mL
same,pH,"[2]; H2O, 4 hrs",5.9
same,FC: form change,"[2]; H2O, 24 hrs",No
same,S: solubility,"[2]; H2O, 24 hrs",6.1 µg/mL
same,pH,"[2]; H2O, 24 hrs",6.4
same,FC: form change,"[2]; SGF, 1 hr",No
same,S: solubility,"[2]; SGF, 1 hr",61 µg/mL
same,pH,"[2]; SGF, 1 hr",1.8
same,FC: form change,"[2]; SGF, 4 hrs",No
same,S: solubility,"[2]; SGF, 4 hrs",48 µg/mL
same,pH,"[2]; SGF, 4 hrs",1.9
same,FC: form change,"[2]; SGF, 24 hrs",Yes
same,S: solubility,"[2]; SGF, 24 hrs",39 µg/mL
same,pH,"[2]; SGF, 24 hrs",1.8
same,water uptake,[3],2.5%
"COc1cc(C(=O)O)cc2sc(N3CCN(Cc4c(-c5c(Cl)cccc5Cl)noc4C4CC4)C[C@H]3C)nc12 [Form C, (R)-2-(4-((5-cyclopropyl-3-(2,6-dichlorophenyl)isoxazol-4-yl)methyl)-2-methylpiperazin-1-yl)-4-methoxybenzo[d]thiazole-6-carboxylic acid]",form after exposing to ambient conditions,[4]; ambient conditions for about 10 min,HCl salt Form B was re-obtained
same,form change after heating to 120° C. and cooling to 30° C.,"[4]; with N2 protection, VT-XRPD",no form change occurred

# From US20250066346A1, “SOLID FORMS OF A BENZTHIAZOLE-PIPERAZINYL-OXAZOLE COMPOUND AND METHODS OF USE THEREOF” (Hepagene Therapeutics (HK) Limited, priority 2022, published 2025)
